Activity calls are given as the source filed them. No cut-off for these calls is given here.

The subject of series [1] is B16-F10. Kind of series: Cytotoxicity against mouse B16F10 cells assessed as suppression of cell viability at 12.5 to 200 uM after 72 hrs. Particulars: b16-f10, 72 h. It is filed as cell-based.
Series [2] has as its system B16-F10. In words: Antimelanogenic activity in mouse assessed as cellular melanin content B16F10 cells after 72 hrs by spectrophotometric analysis. It counts as functional, cell-based.
Series [3] relates to B16-F10. In words: Cytotoxicity against mouse B16F10 cells assessed as suppression of cell viability at 400 uM after 72 hrs. Particulars: b16-f10, 72 h. It is filed as cell-based.
Series [4] concerns the target T1, Tyrosinase (Agaricus bisporus) (UniProt O42713).
T1 sequence (whole entry): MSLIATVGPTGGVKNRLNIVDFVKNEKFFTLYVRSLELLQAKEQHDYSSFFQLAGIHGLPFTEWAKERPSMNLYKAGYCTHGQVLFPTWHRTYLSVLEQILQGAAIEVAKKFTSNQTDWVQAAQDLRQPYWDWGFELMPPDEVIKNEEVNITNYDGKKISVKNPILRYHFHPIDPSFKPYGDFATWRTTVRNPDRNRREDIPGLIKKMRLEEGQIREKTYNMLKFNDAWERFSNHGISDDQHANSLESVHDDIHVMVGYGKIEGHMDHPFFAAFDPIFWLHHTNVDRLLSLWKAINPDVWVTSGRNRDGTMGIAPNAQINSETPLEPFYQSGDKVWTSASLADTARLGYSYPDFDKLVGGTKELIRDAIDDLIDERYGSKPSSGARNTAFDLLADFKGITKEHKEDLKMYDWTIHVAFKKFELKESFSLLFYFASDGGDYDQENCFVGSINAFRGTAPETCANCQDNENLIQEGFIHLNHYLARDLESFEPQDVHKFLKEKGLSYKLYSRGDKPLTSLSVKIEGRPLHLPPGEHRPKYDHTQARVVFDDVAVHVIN
Kind of series: Inhibition of mushroom tyrosinase assessed as L-DOPA oxidation at 100 uM incubated 30 mins prior to substrate addition measured after 60 mins by UV-vis spectrophotometric analysis.

The target of series [5] is T1, Tyrosinase (Agaricus bisporus). In words: Inhibition of mushroom tyrosinase-mediated L-tyrosine oxidation after 60 mins by HPLC analysis.
Series [6] has as its system B16-F10. In words: Antimelanogenic activity in mouse assessed as cellular melanin content B16F10 cells at 200 uM after 72 hrs spectrophotometric analysis. It counts as functional, cell-based.
The test system of series [7] is B16-F10. In words: Cytotoxicity against mouse B16F10 cells assessed as suppression of cell viability at 200 uM after 72 hrs. It counts as cell-based. The note with it: b16-f10, 72 h.
The test system of series [8] is B16-F10. In words: Cytotoxicity against mouse B16F10 cells assessed as suppression of cell viability after 72 hrs. It counts as cell-based.
Series [9] deals with T1, Tyrosinase (Agaricus bisporus). In words: Inhibition of mushroom tyrosinase-mediated L-DOPA oxidation assessed as recovery of enzymatic activity at 100 uM preincubated for 30 mins by HPLC analysis in the presence of 200 uM of L-cysteine.
Series [10] shares this target. In words: Inhibition of mushroom tyrosinase-mediated L-DOPA oxidation assessed as decrease in dopachrome formation at 100 uM preincubated for 30 mins by HPLC analysis.
Series [11] shares this target. In words: Inhibition of mushroom tyrosinase-mediated oxygen consumption at 100 uM using L-DOPA substrate incubated 30 mins prior to substrate addition measured after 60 mins.
Series [12] shares this target. Kind of series: Inhibition of mushroom tyrosinase-mediated L-DOPA oxidation assessed as decrease in dopachrome formation at 100 uM incubated 30 mins prior to substrate addition measured after 60 mins by UV-vis spectrophotometric analysis.
Series [13] shares this target. Kind of series: Inhibition of mushroom tyrosinase-mediated oxygen consumption at 100 uM using L-tyrosine substrate incubated 30 mins prior to substrate addition measured after 60 mins.
The target is the same in series [14]. Kind of series: Inhibition of mushroom tyrosinase assessed as L-tyrosine oxidation at 100 uM incubated 30 mins prior to substrate addition measured after 60 mins by UV-vis spectrophotometric analysis.
Series [15] has the same target. In words: Inhibition of mushroom tyrosinase assessed as L-DOPA oxidation HPLC analysis.
The target is the same in series [16]. Kind of series: Inhibition of mushroom tyrosinase-mediated oxygen consumption using L-DOPA substrate at 100 uM after 30 mins.
For series [17] the target is unchanged. Kind of series: Activation of mushroom tyrosinase assessed as L-DOPA oxidation at 100 uM after 30 mins by UV-vis spectrophotometric analysis.
Series [18] shares this target. In words: Inhibition of mushroom tyrosinase-mediated L-DOPA oxidation at 100 uM after 30 mins by UV-vis spectrophotometric analysis.
For series [19] the target is unchanged. In words: Inhibition of mushroom tyrosinase-mediated L-tyrosine oxidation assessed as decrease in dopachrome formation at 100 uM after 60 mins by UV-vis spectrophotometric analysis.
Series [20] is described as follows: Drug metabolism assessed as oxidation of the compound at 100 uM after 10 mins by UV-vis spectrophotometric analysis in the presence of tyrosinase. It is filed as physicochemical.
Series [21] has as its target T1, Tyrosinase (Agaricus bisporus). Kind of series: Inhibition of mushroom tyrosinase-mediated L-tyrosine oxidation at 100 uM after 60 mins by HPLC analysis.
The target is the same in series [22]. In words: Activation of mushroom tyrosinase assessed as oxygen consumption using L-tyrosine substrate after 60 mins.
For series [23] the target is unchanged. Kind of series: Inhibition of mushroom tyrosinase-mediated oxygen consumption using L-tyrosine substrate after 60 mins.
Series [24] can be described thus: Drug metabolism assessed as oxidation of the compound at 100 uM after 30 mins by HPLC analysis in the presence of tyrosinase. It is filed as physicochemical. Particulars: 0.5 h.
Series [25] concerns the target T1, Tyrosinase (Agaricus bisporus). In words: Activation of mushroom tyrosinase assessed as dopachrome formation after 60 mins by UV-vis spectrophotometric analysis.
For series [26] the target is unchanged. In words: Inhibition of mushroom tyrosinase-mediated dopachrome formation after 60 mins by UV-vis spectrophotometric analysis.
Another series has as its system tyrosinase. In words: Drug metabolism assessed as oxidation of the compound at 100 uM after 60 mins by HPLC analysis in the presence of tyrosinase. It counts as physicochemical. The note with it: read-out: Drug metabolism.
A short description of series [27]: Drug metabolism assessed as oxidation of the compound at 100 uM by HPLC analysis in the presence of tyrosinase. It is filed as physicochemical. The note with it: TDE = time-dependent effect.

On to `Oc1cc(O)cc(/C=C\c2ccccc2)c1`, for which the Activity result in the series on B16-F10 [1] was “Non-toxic”. The result in the series on B16-F10 [2] was inactive.
Turning to `Oc1cc(O)cc(CCc2ccccc2)c1` [DIHYDROPINOSYLVIN], the Activity entry with B16-F10 [1] was “Non-toxic”. Also, the outcome with B16-F10 [2] was inactive.
As to `Oc1cc(O)cc(/C=C/c2ccccc2)c1` [PINOSYLVIN], the Activity result is listed as “Non-toxic” in the series on B16-F10 [1] and “Toxic” in the series on B16-F10 [3].
Consider `Oc1ccc(/C=C/c2cc(O)cc(O)c2)cc1` [RESVERATROL], for which the Activity entry in the series with B16-F10 [1] was “Non-toxic”; in the series with B16-F10 [2] it was “Dose-dependent effect”; in the series on B16-F10 [7] it was 10%; with B16-F10 [8] (mouse, b16-f10, 72 h), “Dose-dependent effect”; in series [22], “Dose-dependent effect”; in [25], “Dose-dependent effect”. Also, the inhibition (usually the drop in the measured response relative to a control, in per cent) in series [4] is 90%; in [5], “Dose-dependent effect”; in [9], 20%; in series [10], 10%. Besides, in the series with B16-F10 [6], the outcome was Active. Also, the IC50 – broadly, the concentration at which inhibition is half-maximal – in the series on B16-F10 [8] (Mus musculus, B16-F10, 72 h) is more than 200 µM. Moreover, the inhibition entry in [11], in [12], in series [13], in [14], in series [15] and in [19] was “Active” in each case. Moreover, the inhibition entry in [21] is “Active”. Also, the inhibition entry in series [16], in series [18], in [23] and in [26] was “inactive” each time. In series [17], the result was inactive. The Drug metabolism entry is “Active” in series [20], “Active” in series [24] and “tde” in [27]. The metabolised at 1 h, 100 µM with tyrosinase was 90%.
